Reference: US20200017496A1 (priority 2017, published 2020)

Assays:
[1] = system: Salmonella typhimurium (STY) isolates; experiment: MIC of compounds alone and combined with antibacterials, broth microdilution (CLSI); type: cell-based
Method: (§1) Method 2: MIC of Compounds Alone and Combined with Antibacterials Against Bacterial Isolates.
(§2) Compounds of the present invention were assessed against genotyped bacterial strains (Table 3, 4) alone or in combination with an antibacterial (Table 2). […] Log phase bacterial suspensions were adjusted to a final density of 5·10^5 CFU/mL in cation-adjusted Mueller-Hinton broth (ca-MHB; Becton-Dickinson and Company) and added to each well (98 μL). Microplates were incubated for 16-20 h at 35° C. in ambient air. The MIC of the compounds was defined as the lowest concentration of said compounds that prevented bacterial growth as read by visual inspection. The MIC of ATB at each compound concentration was defined as the lowest concentration of ATB that prevented bacterial growth as read by visual inspection.

[2] = system: Escherichia coli (ECO) isolates; experiment: as above; type: cell-based
Method: as §1, §2

Measured: MIC ATB in combination

CC(C)(O/N=C(\C(=O)N[C@@H]1C(=O)N2C(C(=O)[O-])=C(C[n+]3ccccc3)CS[C@H]12)c1csc(N)n1)C(=O)O [CAZ, Ceftazidime]
2 µg/mL: [2]; ECO UFR17, AF1 @ 8 μg/mL | [2]; ECO UFR61O, AF1 @ 4 μg/mL | [2]; ECO UFR175, AF1 @ 4 μg/mL | [2]; ECO UFR176, AF1 @ 4 μg/mL | [2]; ECO UFR185, AF1 @ 4 μg/mL
<=0.25 μg/mL: [1] | [2]; ECO 4133, AF1 @ 4 μg/mL | [2]; ECO 4133, AF1 @ 8 μg/mL | [2]; ECO 5302, AF1 @ 4 μg/mL | [2]; ECO 5302, AF1 @ 8 μg/mL | [2]; ECO 131119, AF1 @ 4 μg/mL | [2]; ECO 131119, AF1 @ 8 μg/mL | [2]; ECO 180070, AF1 @ 4 μg/mL | [2]; ECO 180070, AF1 @ 8 μg/mL | [2]; ECO 190314, AF1 @ 8 μg/mL | [2]; ECO 190317, AF1 @ 8 μg/mL | [2]; ECO 190457, AF1 @ 4 μg/mL | [2]; ECO 190457, AF1 @ 8 μg/mL | [2]; ECO 190549, AF1 @ 4 μg/mL | [2]; ECO 190549, AF1 @ 8 μg/mL | [2]; ECO 200159, AF1 @ 4 μg/mL | [2]; ECO 200159, AF1 @ 8 μg/mL | [2]; ECO 200259, AF1 @ 4 μg/mL | [2]; ECO 200259, AF1 @ 8 μg/mL | [2]; ECO 200344, AF1 @ 4 μg/mL | [2]; ECO 200344, AF1 @ 8 μg/mL | [2]; ECO 260096, AF1 @ 4 μg/mL | [2]; ECO 260096, AF1 @ 8 μg/mL | [2]; ECO 260304, AF1 @ 4 μg/mL | [2]; ECO 260304, AF1 @ 8 μg/mL | [2]; ECO 260508, AF1 @ 4 μg/mL | [2]; ECO 260508, AF1 @ 8 μg/mL | [2]; ECO RGN238, AF1 @ 4 μg/mL | [2]; ECO RGN238, AF1 @ 8 μg/mL | [2]; ECO UFR15, AF1 @ 4 μg/mL | [2]; ECO UFR15, AF1 @ 8 μg/mL | [2]; ECO UFR16, AF1 @ 4 μg/mL | [2]; ECO UFR16, AF1 @ 8 μg/mL | [2]; ECO UFR18, AF1 @ 8 μg/mL | [2]; ECO UFR19, AF1 @ 8 μg/mL | [2]; ECO UFR62, AF1 @ 4 μg/mL | [2]; ECO UFR62, AF1 @ 8 μg/mL | [2]; ECO UFR74, AF1 @ 8 μg/mL | [2]; ECO UFR86, AF1 @ 8 μg/mL | [2]; ECO UFR174, AF1 @ 4 μg/mL | [2]; ECO UFR175, AF1 @ 8 μg/mL | [2]; ECO UFR176, AF1 @ 8 μg/mL | [2]; ECO UFR184, AF1 @ 8 μg/mL | [2]; ECO UFR186, AF1 @ 4 μg/mL | [2]; ECO UFR186, AF1 @ 8 μg/mL | [2]; ECO UFR187, AF1 @ 8 μg/mL
<0.25 µg/mL: [2]; ECO UFR174, AF1 @ 8 μg/mL | [2]; ECO UFR185, AF1 @ 8 μg/mL
16 µg/mL: [2]; ECO UFR17, AF1 @ 4 μg/mL
0.5 µg/mL: [2]; ECO 190314, AF1 @ 4 μg/mL | [2]; ECO UFR61O, AF1 @ 8 μg/mL
1 µg/mL: [2]; ECO UFR18, AF1 @ 4 μg/mL | [2]; ECO UFR19, AF1 @ 4 μg/mL | [2]; ECO UFR20, AF1 @ 4 μg/mL | [2]; ECO UFR20, AF1 @ 8 μg/mL | [2]; ECO UFR74, AF1 @ 4 μg/mL | [2]; ECO UFR86, AF1 @ 4 μg/mL | [2]; ECO UFR184, AF1 @ 4 μg/mL | [2]; ECO UFR187, AF1 @ 4 μg/mL
